Measured values taken from paper PMC9416004, “A Versatile Class of 1,4,4-Trisubstituted Piperidines Block Coronavirus Replication In Vitro” (Pharmaceuticals, 2022).
Where two headings read alike, the source gives them in different places.

Columns and labels:
[1] = tested on: human embryonic lung (HEL) fibroblast cells; conditions: mock-infected HEL cells; microscopically visible alterations in cell morphology
[2] = tested on: HCoV-229E; test: Cytopathic effect (CPE) reduction assay with HCoV-229E in HEL cells; format: cell-based, human coronavirus 229E; conditions: for EC50: Human coronavirus 229E, 120 h, HCoV-229E-infected HEL cells, five days at 35 °C; for Selectivity Index MTS: ratio of CC50 to EC50-MTS; for Selectivity Index MTS / Selectivity Index Microscopy: only values of 10 or higher shown; for Selectivity Index Microscopy: ratio of MCC to EC50-microscopy
[3] = in vitro; conditions: human
[4] = protection against virus-induced CPE by MTS cell viability assay, read-out: Antiviral EC50 MTS
[5] = protection against virus-induced CPE by microscopic scoring, read-out: Antiviral EC50 Microscopy

Compound | Cytotoxicity MCC (minimal cytotoxic concentration) [1] | EC50 [2, 4] | EC50 [2, 5] | Selectivity Index MTS [2] | Selectivity Index Microscopy [2] | CC50 [3]
COC(=O)C[C@H](NC(=O)OC(C)(C)C)C(=O)N(Cc1ccc(F)cc1)C1(C(=O)NCc2ccccc2)CCN(Cc2ccccc2)CC1 [Compound 2] | 100 µM | 7.4 ± 2.5 µM | 7.8 ± 2.7 µM | 6 | 13 | 44 ± 8 µM
COC(=O)C[C@H](NC(=O)OC(C)(C)C)C(=O)N(Cc1ccc(F)cc1)C(C)(C)C(=O)NCc1ccccc1 [Compound 3] | >100 µM | > 100 µM | > 100 µM |  |  | > 100 µM
COC(=O)C[C@H](NC(=O)OC(C)(C)C)C(=O)N(Cc1ccc(F)cc1)C1(C(=O)NCc2ccccc2)CCNCC1 [Compound 4] | 100 µM | 78 ± 14 µM | 50 ± 18 µM |  |  | 66 ± 7 µM
COC(=O)C[C@H](NC(=O)OC(C)(C)C)C(=O)N(Cc1ccc(F)cc1)C1(C(=O)NCc2ccccc2)CCN(C)CC1 [Compound 5] | >100 µM | 22 ± 7 µM | 22 ± 9 µM |  |  | 92 ± 4 µM
COC(=O)C[C@H](NC(=O)OC(C)(C)C)C(=O)N(Cc1ccc(F)cc1)C1(C(=O)NCc2ccccc2)CCN(C2CCCCC2)CC1 [Compound 6] | 100 µM | 14 ± 1 µM | 22 ± 9 µM |  |  | 85 ± 9 µM
COC(=O)C[C@H](NC(=O)OC(C)(C)C)C(=O)N(Cc1ccc(F)cc1)C1(C(=O)NCc2ccccc2)CCN(c2ccccc2)CC1 [Compound 7] | >100 µM | > 100 µM | 43 ± 3 µM |  |  | > 100 µM
COC(=O)C[C@H](NC(=O)OC(C)(C)C)C(=O)N(Cc1ccc(F)cc1)C1(C(=O)NCc2ccccc2)CC[N+](C)(Cc2ccccc2)CC1 (stereo partly drawn) [Compound 8] | >100 µM | > 100 µM | > 100 µM |  |  | > 100 µM
COC(=O)C[C@H](NC(=O)OC(C)(C)C)C(=O)N(Cc1ccc(F)cc1)C1(C(=O)NCc2ccccc2)CCN(Cc2cccc(F)c2)CC1 [Compound 9] | >100 µM | > 100 µM | > 100 µM |  |  | > 100 µM
COC(=O)C[C@H](NC(=O)OC(C)(C)C)C(=O)N(Cc1ccc(F)cc1)C1(C(=O)NCc2ccccc2)CCN(Cc2cc(F)cc(F)c2)CC1 [Compound 10] | 70 µM | > 100 µM | 15 ± 1 µM |  |  | 10 ± 2 µM
COC(=O)C[C@H](NC(=O)OC(C)(C)C)C(=O)N(Cc1ccc(F)cc1)C1(C(=O)NCc2ccccc2)CCN(CCc2ccccc2)CC1 [Compound 11] | 100 µM | 4.4 ± 0.8 µM | 3.2 ± 0.1 µM |  | 31 | 38 ± 2 µM
COC(=O)C[C@H](NC(=O)OC(C)(C)C)C(=O)N(Cc1ccc(F)cc1)C1(C(=O)NC(C)(C)C)CCN(Cc2ccccc2)CC1 [Compound 12] | ≥100 µM | 11 µM | 11 µM |  |  | 77 µM
COC(=O)C[C@H](NC(=O)OC(C)(C)C)C(=O)N(Cc1ccc(F)cc1)C1(C(=O)NC2CCCCC2)CCN(Cc2ccccc2)CC1 [Compound 13] | >100 µM | > 100 µM | > 100 µM |  |  | > 100 µM
COC(=O)C[C@H](NC(=O)OC(C)(C)C)C(=O)N(Cc1ccc(F)cc1)C1(C(=O)NCS(=O)(=O)c2ccc(C)cc2)CCN(Cc2ccccc2)CC1 [Compound 14] | 100 µM | 30 ± 6 µM | 57 ± 18 µM |  |  | 78 ± 11 µM
COC(=O)C[C@H](NC(=O)OC(C)(C)C)C(=O)N(Cc1ccccc1)C1(C(=O)NC(C)(C)C)CCN(Cc2ccccc2)CC1 [Compound 15, Methyl(S)-4-(benzyl(1-benzyl-4-tert-butylcarbamoylpiperidin-4-yl)amino)-3-tert-butoxycarbonylamino-4-oxobutanoate] | >100 µM | 25 µM | 25 µM |  |  | 78 ± 7 µM
COC(=O)C[C@H](NC(=O)OC(C)(C)C)C(=O)N(Cc1ccccc1)C1(C(=O)NC2CCCCC2)CCN(Cc2ccccc2)CC1 [Compound 16, Methyl(S)-4-(benzyl(1-benzyl-4-cyclohexylcarbamoylpiperidin-4-yl)amino)-3-tert-butoxycarbonylamino-4-oxobutanoate] | ≥40 µM | 10 µM | 16 ± 3 µM |  |  | 42 ± 4 µM
COC(=O)CNC(=O)C1(N(Cc2ccccc2)C(=O)[C@H](CC(=O)OC)NC(=O)OC(C)(C)C)CCN(Cc2ccccc2)CC1 [Compound 17] | >100 µM | 75 ± 8 µM | 68 ± 3 µM |  |  | > 100 µM
COC(=O)C[C@H](NC(=O)OC(C)(C)C)C(=O)NC1(C(=O)NCc2ccccc2)CCN(Cc2ccccc2)CC1 [Compound 18] | ≥100 µM | > 100 µM | 55 ± 16 µM |  |  | 48 ± 8 µM

Compound | Cytotoxicity MCC (minimal cytotoxic concentration) [1] | EC50 [2, 4] | EC50 [2, 5] | Selectivity Index MTS [2] | Selectivity Index Microscopy [2] | CC50 [3]
COC(=O)C[C@H](NC(=O)OC(C)(C)C)C(=O)N(C)C1(C(=O)NCc2ccccc2)CCN(Cc2ccccc2)CC1 [Compound 19] | 100 µM | > 100 µM | 14 ± 1 µM |  |  | 18 ± 2 µM
CCC(C)N(C(=O)[C@H](CC(=O)OC)NC(=O)OC(C)(C)C)C1(C(=O)NCc2ccccc2)CCN(Cc2ccccc2)CC1 (stereo partly drawn) [Compound 20] | 100 µM | 13 ± 1 µM | 14 ± 1 µM |  |  | 31 ± 3 µM
COC(=O)C[C@H](NC(=O)OC(C)(C)C)C(=O)N(C1CC1)C1(C(=O)NCc2ccccc2)CCN(Cc2ccccc2)CC1 [Compound 21] | 50 µM | > 100 µM | 12 ± 0.4 µM |  |  | 14 ± 3 µM
COC(=O)C[C@H](NC(=O)OC(C)(C)C)C(=O)N(Cc1ccc(C)cc1)C1(C(=O)NCc2ccccc2)CCN(Cc2ccccc2)CC1 [Compound 22] | 75 µM | 4.3 ± 0.6 µM | 3.1 µM |  | 24 | 31 ± 10 µM
COC(=O)C[C@H](NC(=O)OC(C)(C)C)C(=O)N(Cc1ccc([N+](=O)[O-])cc1)C1(C(=O)NCc2ccccc2)CCN(Cc2ccccc2)CC1 [Compound 23] | 75 µM | 4 ± 0.6 µM | 3.1 µM | 12 | 24 | 49 ± 6 µM
COC(=O)C[C@H](NC(=O)OC(C)(C)C)C(=O)N(Cc1ccc(C(F)(F)F)cc1)C1(C(=O)NCc2ccccc2)CCN(Cc2ccccc2)CC1 [Compound 24] | 25 µM | 4.2 ± 1 µM | 3.1 µM |  |  | 11 ± 1 µM
COC(=O)C[C@H](NC(=O)OC(C)(C)C)C(=O)N(Cc1ccc(Cl)cc1)C1(C(=O)NCc2ccccc2)CCN(Cc2ccccc2)CC1 [Compound 25] | 50 µM | 3.2 ± 0.2 µM | 3.1 µM |  |  | 12 µM
COC(=O)C[C@H](NC(=O)OC(C)(C)C)C(=O)N(Cc1ccccc1F)C1(C(=O)NCc2ccccc2)CCN(Cc2ccccc2)CC1 [Compound 26] | 100 µM | 15 ± 2 µM | 12 ± 1 µM |  |  | 44 ± 1 µM
COC(=O)C[C@H](NC(=O)OC(C)(C)C)C(=O)N(Cc1cccc(F)c1)C1(C(=O)NCc2ccccc2)CCN(Cc2ccccc2)CC1 [Compound 27] | 100 µM | 14 ± 1 µM | 10 ± 3 µM |  | 10 | 46 ± 4 µM
COC(=O)C[C@H](NC(=O)OC(C)(C)C)C(=O)N(Cc1ccc(F)c(F)c1)C1(C(=O)NCc2ccccc2)CCN(Cc2ccccc2)CC1 [Compound 28] | 44 µM | 3.7 ± 1 µM | 6 ± 2.6 µM |  |  | 23 ± 11 µM
COC(=O)C[C@H](NC(=O)OC(C)(C)C)C(=O)N(CCNc1ccccc1)C1(C(=O)NCc2ccccc2)CCN(Cc2ccccc2)CC1 [Compound 29] | 75 µM | 3.2 ± 0.4 µM | 3 ± 0.1 µM | 11 | 25 | 36 ± 9 µM
COC(=O)CCC(=O)N(Cc1ccc(F)cc1)C1(C(=O)NCc2ccccc2)CCN(Cc2ccccc2)CC1 [Compound 30] | 100 µM | 13 ± 2 µM | 13 µM |  |  | 64 ± 3 µM
COC(=O)C[C@H](N)C(=O)N(Cc1ccc(F)cc1)C1(C(=O)NCc2ccccc2)CCN(Cc2ccccc2)CC1 [Compound 31] | 11 µM | 2.8 ± 0.5 µM | 3.3 ± 0.2 µM |  |  | 4.9 ± 1.5 µM
COC(=O)C[C@H](N)C(=O)N(Cc1ccccc1)C1(C(=O)NCc2ccccc2)CCN(Cc2ccccc2)CC1 [Compound 32] | >100 µM | 62 ± 7 µM | 55 ± 3 µM |  |  | > 100 µM
COC(=O)C[C@H](NC(=O)OCC1c2ccccc2-c2ccccc21)C(=O)N(Cc1ccccc1)C1(C(=O)NCc2ccccc2)CCN(Cc2ccccc2)CC1 [Compound 35] | >100 µM | 26 ± 9 µM | 36 ± 14 µM |  |  | > 100 µM
CCC(C)N(C(=O)[C@H](CC(=O)OC)NC(=O)OCc1ccccc1)C1(C(=O)NCc2ccccc2)CCN(Cc2ccccc2)CC1 (stereo partly drawn) [Compound 36] | 40 µM | 6.2 ± 0.8 µM | 9.2 ± 0.5 µM |  |  | 27 ± 1 µM
